Among the test systems are BT-549 breast; SK-MEL-2 melanoma; TK-10 renal; 786-0 renal; SK-MEL-28 melanoma; SK-OV-3 ovarian; K-562 leukemia; UACC-257 melanoma.
Holding throughout (experiment): NCI anticancer screen, dose series, 48 h

The structures appear in SMILES notation. “And” between values parts separate entries of the source, which are not always exact repeats. Equal values may be shown once.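 Exposure lasted 48 hours, with cells grown in 96-well plates and compounds tested at five concentrations. Abbreviation: GI50, concentration required for 50% inhibition of growth. At the TGI there is no net growth.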

Regarding `COc1cccc2c1C(=O)c1c(O)c3c(c(O)c1C2=O)CC(O)(C(C)=O)CC3OC1CC(N)C(O)C(C)O1` (configuration not stated), the GI50 is 0.0458 µg/mL in the assay on BT-549 breast; 0.102 µg/mL in the assay with SK-MEL-2 melanoma; 0.273 µg/mL in the assay with TK-10 renal; 0.0177 µg/mL in the assay with 786-0 renal; 0.104 µg/mL in the assay on SK-MEL-28 melanoma; 0.0312 µg/mL in the assay with SK-OV-3 ovarian. Further, the GI50 in the assay on K-562 leukemia was 0.0156 µg/mL; with UACC-257 melanoma, 0.116 µg/mL. Further, the TGI with BT-549 breast worked out at 0.459 µg/mL; with SK-MEL-2 melanoma, 0.403 µg/mL; in the assay on TK-10 renal, 18.6 µg/mL; with 786-0 renal, 0.0836 µg/mL; in the assay with SK-MEL-28 melanoma, 0.607 µg/mL; in the assay with SK-OV-3 ovarian, 2.68 µg/mL. In addition, the values for the TGI in the assay with K-562 leukemia and with UACC-257 melanoma were 0.922 µg/mL and 2.06 µg/mL, respectively.

As for `Cc1c2cnccc2c(C)c2c1c1cc(C3OCCCO3)ccc1n2C`, the GI50 in the assay on BT-549 breast was 0.52 µM; with SK-MEL-2 melanoma it was 0.314 µM; in the assay on TK-10 renal, 0.541 µM; in the assay on 786-0 renal it was 0.457 µM; with SK-MEL-28 melanoma, 0.459 µM; with SK-OV-3 ovarian, 0.325 µM. Besides, the GI50 is 0.418 µM with K-562 leukemia and 0.343 µM in the assay with UACC-257 melanoma. In addition, the TGI in the assay with BT-549 breast came out at 2.11 µM; in the assay on SK-MEL-2 melanoma, 1.22 µM; with TK-10 renal it was 4.14 µM; in the assay on 786-0 renal it was 3.25 µM; in the assay with SK-MEL-28 melanoma it was 1.68 µM; with SK-OV-3 ovarian it was 1.76 µM. The TGI in the assay on K-562 leukemia was determined as 2.69 µM; with UACC-257 melanoma, 1.8 µM.

With `CN(C)CCCOc1ccccc1NC1=C(Cl)C(=O)C(Nc2ccccc2OCCCN(C)C)=C(Cl)C1=O`, the GI50 in the assay with BT-549 breast was 1.62 µM; with SK-MEL-2 melanoma it was 1.83 µM; with TK-10 renal, 1.93 µM; with 786-0 renal, 0.661 µM; in the assay with SK-MEL-28 melanoma, 1.72 µM; with SK-OV-3 ovarian, 1.66 µM. Further, the GI50 in the assay with K-562 leukemia is 0.274 µM; in the assay on UACC-257 melanoma it was 1.17 µM. Moreover, the TGI in the assay on BT-549 breast stood at 2.99 µM; in the assay with SK-MEL-2 melanoma, 3.58 µM; in the assay with TK-10 renal, 3.36 µM; in the assay with 786-0 renal, 1.91 µM; in the assay with SK-MEL-28 melanoma, 3.13 µM; in the assay with SK-OV-3 ovarian, 3.02 µM. Moreover, the TGI in the assay on K-562 leukemia stood at 0.793 µM; with UACC-257 melanoma, 2.69 µM.

For `O=C(O)CSCc1cccc2ccccc12`, the TGI with BT-549 breast, in the assay with SK-MEL-2 melanoma, in the assay on TK-10 renal, with 786-0 renal, in the assay with SK-MEL-28 melanoma and with SK-OV-3 ovarian was above 100 µM in each case. For the same compound, the TGI with K-562 leukemia and in the assay on UACC-257 melanoma was above 100 µM each time.

In the case of `CNC(=O)c1cc(COc2nnc(Nc3ccc(Cl)cc3)c3ccoc23)ccn1`, the GI50 in the assay with BT-549 breast was 3.53 µM and > 10 µM; with SK-MEL-2 melanoma, 6.71 µM and > 10 µM; in the assay on TK-10 renal it was 3.59 µM and 8.84 µM; with 786-0 renal it was 2.36 µM and > 10 µM; in the assay with SK-MEL-28 melanoma it was 7.98 µM and > 10 µM; in the assay with SK-OV-3 ovarian, 3.48 µM and 9.73 µM. Further, the GI50 in the assay with K-562 leukemia is 19.6 µM and > 10 µM; in the assay on UACC-257 melanoma, 6.3 µM and > 10 µM. Further, the TGI in the assay with BT-549 breast is 16.6 µM and > 10 µM; with SK-MEL-2 melanoma it was 21 µM and > 10 µM; with TK-10 renal, 11.8 µM and > 10 µM; in the assay on 786-0 renal, 6.7 µM and > 10 µM; in the assay with SK-MEL-28 melanoma it was 27.7 µM and > 10 µM; in the assay on SK-OV-3 ovarian it was 13.2 µM and > 10 µM. The TGI was 72 µM and > 10 µM with K-562 leukemia; 35.6 µM and > 10 µM in the assay on UACC-257 melanoma.

In the case of `COC1=CC(c2ccc[nH]2)=N/C1=C\c1[nH]c(C)c(C(=O)OCc2ccccc2)c1C`, the GI50 in the assay with BT-549 breast is 0.253 µM; with SK-MEL-2 melanoma, 0.0445 µM; with TK-10 renal, 0.0854 µM; with 786-0 renal, 0.0666 µM; with SK-MEL-28 melanoma, 0.353 µM; in the assay with SK-OV-3 ovarian, 0.824 µM. Also, the GI50 in the assay with K-562 leukemia was 0.0855 µM; in the assay on UACC-257 melanoma, 0.316 µM. Besides, the TGI was determined as 3.46 µM in the assay on BT-549 breast; 0.196 µM in the assay with SK-MEL-2 melanoma; 1.91 µM in the assay on TK-10 renal; 1.08 µM in the assay with 786-0 renal; 1.71 µM with SK-MEL-28 melanoma; 4.86 µM with SK-OV-3 ovarian. Also, the TGI stood at 1.46 µM with K-562 leukemia and 1.83 µM in the assay on UACC-257 melanoma.

Take `COc1cc(C(=O)OCCCCCCCCCCC[P+](c2ccccc2)(c2ccccc2)c2ccccc2)ccc1O`: the GI50 in the assay with BT-549 breast was 0.271 µM; in the assay on SK-MEL-2 melanoma, 0.522 µM; in the assay on TK-10 renal, 1.65 µM; in the assay with 786-0 renal, 1.06 µM; with SK-OV-3 ovarian, 1.35 µM; with UACC-257 melanoma, 0.451 µM. Also, the TGI with BT-549 breast turned out to be 1.26 µM; with SK-MEL-2 melanoma, 1.88 µM; in the assay on TK-10 renal, 4.15 µM; in the assay with 786-0 renal it was 2.38 µM; in the assay with SK-OV-3 ovarian, 5.5 µM; in the assay on UACC-257 melanoma, 1.54 µM.

Turning to `COc1cccc([C@H]2CC(=O)c3cc4c(cc3N2)OCO4)c1`, the TGI in the assay on TK-10 renal, in the assay with 786-0 renal, in the assay on SK-MEL-28 melanoma, in the assay with SK-OV-3 ovarian and with UACC-257 melanoma was above 100 µM each time. Also, the values for the GI50 in the assay with 786-0 renal, in the assay with SK-OV-3 ovarian and with UACC-257 melanoma were 0.0789 µM, 0.556 µM and 0.0414 µM, respectively.

Regarding `COC(=O)[C@@H](NC(=O)NC(=O)NC(=O)CI)C(C)C`, the GI50 was 11.5 µM in the assay with BT-549 breast; 18.9 µM in the assay on SK-MEL-2 melanoma; 7.65 µM with TK-10 renal; 11.4 µM in the assay with 786-0 renal; 1.88 µM with SK-MEL-28 melanoma; 18.3 µM in the assay on SK-OV-3 ovarian. For the same compound, the GI50 in the assay with UACC-257 melanoma was 13.6 µM. Also, the TGI with BT-549 breast turned out to be 23.7 µM; in the assay on SK-MEL-2 melanoma, 36.5 µM; in the assay with TK-10 renal, 20.5 µM; in the assay with 786-0 renal, 23.5 µM; with SK-MEL-28 melanoma, 3.85 µM; in the assay on SK-OV-3 ovarian it was 33 µM. This compound also displayed a TGI in the assay on UACC-257 melanoma of 27.8 µM.

For `COc1cc(-c2nn3c(/C=C4/C(=O)Nc5ccccc54)c(-c4ccc(C)cc4)nc3s2)cc(OC)c1OC`, the GI50 is 4.69 µM in the assay on BT-549 breast; 16.3 µM with SK-MEL-2 melanoma; 1.69 µM in the assay with TK-10 renal; 5.8 µM with 786-0 renal; 15.2 µM with SK-OV-3 ovarian. The TGI with BT-549 breast worked out at 38.1 µM; with SK-MEL-2 melanoma, 30.9 µM; in the assay on TK-10 renal, 4.38 µM; with 786-0 renal, 21.4 µM; with SK-OV-3 ovarian it was 39.7 µM.

These data come from PubChem BioAssay (NCI).
